The subject of one series is BXPC-3. The series is described as follows: Anticancer activity against human BxPC3 cells. It is filed as functional.
In another series the test system is SF-268. Put plainly: Anticancer activity against human SF268 cells. It is filed as functional.
Another series has as its system MCF7. Put plainly: Anticancer activity against human MCF7 cells. In kind it is functional.
The next series concerns DU-145. Put plainly: Anticancer activity against human DU145 cells. In kind it is functional.
The test system of the next series is NCI-H460. The series is described as follows: Anticancer activity against human NCI-H460 cells. It is filed as functional.
The subject of another series is KM-20L2. The series is described as follows: Anticancer activity against human KM20L2 cells. In kind it is functional.
Series [1] can be described thus: Aqueous solubility of the compound in distilled water at 23 degC. In kind it is physicochemical.
For another series, the system named is P388. Put plainly: Anticancer activity against mouse P388 cells. In kind it is functional.

Molecules are shown by their SMILES. A value given as a limit tells only on which side of the number the result lay.

With `CC[C@H](C)[C@@H]([C@@H](CC(=O)N1CCC[C@H]1[C@H](OC)[C@@H](C)C(=O)Nc1ccc2ncccc2c1)OC)N(C)C(=O)[C@@H](NC(=O)[C@H](C(C)C)N(C)C)C(C)C`, the GI50 in the series on BXPC-3 stood at 0.43 nM; with SF-268, 0.22 nM; with MCF7 it was 0.19 nM; in the series with DU-145, 0.41 nM; with NCI-H460, 0.5 nM; in the series on KM-20L2, 0.35 nM.
For the molecule `CC[C@H](C)[C@@H]([C@@H](CC(=O)N1CCC[C@H]1[C@H](OC)[C@@H](C)C(=O)Nc1ccc2ccccc2n1)OC)N(C)C(=O)[C@@H](NC(=O)[C@H](C(C)C)N(C)C)C(C)C`, the GI50 in the series with BXPC-3 was found to be 40.1 nM; in the series on SF-268 it was 40.1 nM; in the series on MCF7, 6.35 nM; with DU-145, 31.8 nM; with NCI-H460 it was 22.1 nM; in the series with KM-20L2, 10.6 nM.
On to `C1COCCN1.CC[C@H](C)[C@@H]([C@@H](CC(=O)N1CCC[C@H]1[C@H](OC)[C@@H](C)C(=O)NCCc1ccc(OP(=O)(O)O)cc1)OC)N(C)C(=O)[C@@H](NC(=O)[C@H](C(C)C)N(C)C)C(C)C` [MORPHOLINE AURISTATIN TP], for which the solubility in series [1] was greater than 72 mg/mL.
For the molecule `CC[C@H](C)[C@@H]([C@@H](CC(=O)N1CCC[C@H]1[C@H](OC)[C@@H](C)C(=O)NCCc1ccc(OP(=O)(O)O)cc1)OC)N(C)C(=O)[C@@H](NC(=O)[C@H](C(C)C)N(C)C)C(C)C` [SODIUM AURISTATIN TP], the 50% growth inhibitory concentration (GI50) was 54.6 nM with BXPC-3; 1.48 nM in the series on SF-268; 0.81 nM in the series with MCF7; 0.64 nM with DU-145; 1.05 nM with NCI-H460; less than 1.2 nM with P388. In addition, the GI50 in the series with KM-20L2 was 0.72 nM.
In the series on P388, `CC[C@H](C)[C@@H]([C@@H](CC(=O)N1CCC[C@H]1[C@H](OC)[C@@H](C)C(=O)NCCc1ccc(OP(=O)(O)O)cc1)OC)N(C)C(=O)[C@@H](NC(=O)[C@H](C(C)C)N(C)C)C(C)C` [POTASSIUM AURISTATIN TP] showed a GI50 of 8.7 nM.
As for `C=C[C@H]1CN2CCC1C[C@H]2[C@H](O)c1ccnc2ccc(OC)cc12.CC[C@H](C)[C@@H]([C@@H](CC(=O)N1CCC[C@H]1[C@H](OC)[C@@H](C)C(=O)NCCc1ccc(OP(=O)(O)O)cc1)OC)N(C)C(=O)[C@@H](NC(=O)[C@H](C(C)C)N(C)C)C(C)C` [Quinine Auristatin TP], the solubility in series [1] is less than 5 mg/mL.

The values above are taken from ChEMBL document CHEMBL1781984 (J Nat Prod, 2011).
